One series in a line: solvent given as SMILES. To be noted: in C1CCCCC1.
On to `c1cc2c3c(c1)OCCCCCCOc1cccc(c1-c1c4ccccc4c-3c3ccccc13)OCCCCCCO2`, for which the emission maximum was determined as 429 nm.

In turn, `CCc1c(C)c2n(c1C)[B-](F)(F)[N+]1=C(C=C3C=Cc4ccccc43)C=CC1=C2C` displayed an emission maximum of 596 nm.

Compound `CC(C)(C)c1ccc2c(c1)c1cc(C(C)(C)C)ccc1n2-c1ccc2oc3nc4oc5ccc(C(F)(F)F)cc5c4cc3c2c1` registered an emission maximum of 396 nm.

Consider `CN(C)c1ccc(/C=C/c2ccc(-c3nc(C#N)c(C#N)n3C)cc2)cc1`, for which the emission maximum is reported as 437 nm.

Regarding `Cc1ccccc1C1=C2C=c3c(oc4ccc(C(C)(C)C)cc34)=[N+]2[B-](F)(F)n2c1cc1c3cc(C(C)(C)C)ccc3oc12`, the emission maximum came to 602 nm.

The same series, now with this note: in C1CCOC1.
In the case of `Cn1c(=O)c(/N=N/c2ccc(S(=O)(=O)O)c3ccccc23)c(O)c2ccccc21`, the emission maximum is 548 nm.

Turning to `Cc1ccc2c(CC(=O)NN)coc2c1`, the emission maximum worked out at 400 nm.

For the compound `CCCCCOc1ccc2c(c1)c1ccc3cccc4c5cc(OC)cc6oc(=O)c2c(c65)c1c34`, the emission maximum is 454 nm.

As for `CC(C)(C)c1ccc2c(c1)c1cc(C(C)(C)C)ccc1n2-c1ccc2oc3nc4oc5ccc(C(F)(F)F)cc5c4cc3c2c1`, the emission maximum was 455 nm.

Compound `CCCCCCCCOc1ccc2c3cccc4c(OCCCCCCCC)ccc(c5cccc1c52)c43` showed an emission maximum of 468.03 nm.

`O=C1/C(=C\c2ccc3oc4ccccc4c3c2)S(=O)(=O)c2ccccc21` gave an emission maximum of 437 nm.

`c1ccc2c(c1)-c1ccccc1C21c2ccccc2-c2sc3c(c21)C1(c2ccccc2-c2ccccc21)c1ccccc1-3` came in with an emission maximum of 403 nm.

The same series, now with this note: in C1COCCO1.
As for `CN1C(=O)/C(=C/c2ccncc2)N=C1/C=C/c1ccncc1`, the emission maximum was found to be 537 nm.

For `O=C1/C(=C\c2ccc3oc4ccccc4c3c2)S(=O)(=O)c2ccccc21`, the emission maximum is listed as 436 nm.

Still in this series, the particulars now being: in CC#N.
For the compound `COc1cnc(-c2cc[n+](C3=C(F)C(F)(F)C(F)(F)[C-]3F)cc2)s1`, the emission maximum is 474 nm.

Consider `O=C1C(=Cc2ccc(Br)cc2)Oc2cccc(O)c21`, for which the emission maximum was determined as 487 nm.

On to `COc1ccc(/C=C/C2=CC(/C=C/c3ccc(OC)cc3)=[O+][B-](F)(F)O2)cc1`, for which the emission maximum was determined as 549 nm.

`CN1C(=O)/C(=C/c2ccncc2)N=C1/C=C/c1ccncc1`: the emission maximum is recorded as 541 nm.

On to `c1ccc2c(c1)c1ccccc1n2-c1ccc(-c2ccc(-n3c4ccccc4c4ccccc43)nc2-n2c3ccccc3c3ccccc32)nn1`, for which the emission maximum came to 464.96 nm.

Consider `Cc1ccc2c(CC(=O)NN)coc2c1`, for which the emission maximum stood at 397 nm.

`O=P1(c2ccccc2)C2=C(c3ccccc31)[Si](c1ccccc1)(c1ccccc1)c1cc(N(c3ccccc3)c3ccccc3)ccc12` (configuration not stated) showed an emission maximum of 629 nm.

`CC(C)(C)c1ccc2c(c1)c1cc(C(C)(C)C)ccc1n2-c1ccc2oc3nc4oc5ccc(C(F)(F)F)cc5c4cc3c2c1`: the emission maximum was 513 nm.

On to `CN(C)c1ccc(/C=C/c2ccc(-c3nc(C#N)c(C#N)n3C)cc2)cc1`, for which the emission maximum was 530 nm.

`O=C1/C(=C\c2ccc3oc4ccccc4c3c2)S(=O)(=O)c2ccccc21` came in with an emission maximum of 480 nm.

Still in this series, the particulars now being: in CC(C)=O.
For the compound `COc1cnc(-c2cc[n+](C3=C(F)C(F)(F)C(F)(F)[C-]3F)cc2)s1`, the emission maximum was 474 nm.

As for `COc1ccc(/C=C/C2=CC(/C=C/c3ccc(OC)cc3)=[O+][B-](F)(F)O2)cc1`, the emission maximum was 534 nm.

Turning to `Cn1c(=O)c(/N=N/c2ccc(S(=O)(=O)O)c3ccccc23)c(O)c2ccccc21`, the emission maximum came to 564 nm.

`CCN(CC)c1ccc2cc(/C=C/C(=C(C#N)C#N)c3ccc4c(c3)c3ccccc3n4CC)c(=O)oc2c1` yielded an emission maximum of 614 nm.

For `Cc1ccc2c(CC(=O)NN)coc2c1`, the emission maximum is reported as 402 nm.

In turn, `O=C1/C(=C\c2ccc3oc4ccccc4c3c2)S(=O)(=O)c2ccccc21` returned an emission maximum of 458 nm.

Staying with this series, now noted: in CCCCO.
On to `Cc1ccc2c(CC(=O)NN)coc2c1`, for which the emission maximum is 398 nm.

The same series, now with this note: in CCCO.
With `Cc1ccc2c(CC(=O)NN)coc2c1`, the emission maximum came out at 394 nm.

The same series, now with this note: in CCO.
For `COc1cnc(-c2cc[n+](C3=C(F)C(F)(F)C(F)(F)[C-]3F)cc2)s1`, the emission maximum turned out to be 474 nm.

In turn, `CN1C(=O)/C(=C/c2ccncc2)N=C1/C=C/c1ccncc1` returned an emission maximum of 545 nm.

In turn, `COc1ccc2c(-c3nc(-c4ccccc4F)no3)cc(=O)oc2c1` registered an emission maximum of 464 nm.

In turn, `Cc1ccc2c(CC(=O)NN)coc2c1` gave an emission maximum of 397 nm.

Still in this series, the particulars now being: in CCOC(C)=O.
Turning to `COc1ccc(/C=C/C2=CC(/C=C/c3ccc(OC)cc3)=[O+][B-](F)(F)O2)cc1`, the emission maximum amounted to 515 nm.

`CN1C(=O)/C(=C/c2ccncc2)N=C1/C=C/c1ccncc1`: the emission maximum turned out to be 535 nm.

Consider `Cn1c(=O)c(/N=N/c2ccc(S(=O)(=O)O)c3ccccc23)c(O)c2ccccc21`, for which the emission maximum is given as 555 nm.

`CCN(CC)c1ccc2cc(/C=C/C(=C(C#N)C#N)c3ccc4c(c3)c3ccccc3n4CC)c(=O)oc2c1` gave an emission maximum of 590 nm.

`Cc1ccc2c(CC(=O)NN)coc2c1` had an emission maximum of 390 nm.

Compound `O=C1/C(=C\c2ccc3oc4ccccc4c3c2)S(=O)(=O)c2ccccc21` registered an emission maximum of 429 nm.

`Cc1ccccc1C1=C2C=c3c(oc4ccc(C(C)(C)C)cc34)=[N+]2[B-](F)(F)n2c1cc1c3cc(C(C)(C)C)ccc3oc12` displayed an emission maximum of 602 nm.

The same series, now with this note: in CCOCC.
The compound `COc1ccc(/C=C/C2=CC(/C=C/c3ccc(OC)cc3)=[O+][B-](F)(F)O2)cc1` yielded an emission maximum of 497 nm.

The same series, now with this note: in CN(C)C=O.
Consider `COc1cnc(-c2cc[n+](C3=C(F)C(F)(F)C(F)(F)[C-]3F)cc2)s1`, for which the emission maximum came out at 485 nm.

The compound `CCN(CC)c1ccc2cc(/C=C/C(=C(C#N)C#N)c3ccc4c(c3)c3ccccc3n4CC)c(=O)oc2c1` gave an emission maximum of 629 nm.

`Cc1ccc2c(CC(=O)NN)coc2c1` displayed an emission maximum of 412 nm.

The compound `c1ccc2c(c1)[nH]c1c3[nH]c4ccccc4c3c3nsnc3c21` had an emission maximum of 493 nm.

Take `O=C1/C(=C\c2ccc3oc4ccccc4c3c2)S(=O)(=O)c2ccccc21`: the emission maximum is on record as 445 nm.

The series is the same for the next values; noted with them: in CO.
The compound `COc1cnc(-c2cc[n+](C3=C(F)C(F)(F)C(F)(F)[C-]3F)cc2)s1` returned an emission maximum of 472 nm.

As for `COc1ccc(-c2nc(-c3cccc(OC)c3)[nH]c2-c2ccc(OC)cc2)cc1`, the emission maximum is reported as 399 nm.

Consider `Cn1c(=O)c(/N=N/c2ccc(S(=O)(=O)O)c3ccccc23)c(O)c2ccccc21`, for which the emission maximum is 562 nm.

Turning to `Cc1ccc2c(CC(=O)NN)coc2c1`, the emission maximum stood at 391 nm.

In the case of `O=P1(c2ccccc2)C2=C(c3ccccc31)[Si](c1ccccc1)(c1ccccc1)c1cc(N(c3ccccc3)c3ccccc3)ccc12` (configuration not stated), the emission maximum came to 640 nm.

Take `CN(C)c1ccc(/C=C/c2ccc(-c3nc(C#N)c(C#N)n3C)cc2)cc1`: the emission maximum came out at 514 nm.

`O=C1/C(=C\c2ccc3oc4ccccc4c3c2)S(=O)(=O)c2ccccc21` yielded an emission maximum of 439 nm.

`Cc1ccccc1C1=C2C=c3c(oc4ccc(C(C)(C)C)cc34)=[N+]2[B-](F)(F)n2c1cc1c3cc(C(C)(C)C)ccc3oc12` displayed an emission maximum of 600.5 nm.

The values above are taken from the Deep4Chem optical property database.
